From patent US7250410B2, “Cyclic nucleotide phosphodiesterase inhibitors, preparation and uses thereof” (Via Pharmaceuticals, Inc., priority 2001, dated 2007)
“And” between values parts separate entries of the source, which are not always exact repeats. Equal values may be shown once.

target: PDE4; assay: Inhibition of PDE4, radioenzymatic phosphodiesterase assay; format: biochemical, bovine; conditions: Table 1, formula (III); 1 μM cyclic AMP
How it was run: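 PDE4 partially purified from bovine aortic media by 105,000 g centrifugation and anion-exchange chromatography with an NaCl gradient. Activity measured radioenzymatically: product nucleoside separated from nucleotides by anion exchange and counted by liquid scintillation.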

Compared with COc1cc2c(cc1OC)C(c1cccc3ccccc13)=NN(C)C(=O)C2 [IIIaa, 7,8-dimethoxy-3-methyl-1-(1-naphthyl)-3,5-dihydro-4H-2,3-benzodiazepin-4-one], COc1cc2c(cc1OC)C(c1ccc(-c3ccccc3C)cc1)=NN(C)C(=O)C2 [IIIaq, 7,8-dimethoxy-3-methyl-1-[4-(2-methylphenyl)phenyl]-3,5-dihydro-4H-2,3-benzodiazepin-4-one] is 4.9-fold lower in IC50: 9.3 µM for the first, 1.9 µM for the second.

Compared with COc1cc2c(cc1OC)C(c1ccc(-c3cccc(C)c3)cc1)=NN(C)C(=O)C2 [IIIar, 7,8-dimethoxy-3-methyl-1-[4-(3-methylphenyl)phenyl]-3,5-dihydro-4H-2,3-benzodiazepin-4-one], COc1cc2c(cc1OC)C(c1ccc(Br)cc1)=NN(C)C(=O)C2 [IIIan, 1-(4-bromophenyl)-7,8-dimethoxy-3-methyl-3,5-dihydro-4H-2,3-benzodiazepin-4-one] is 1.6-fold lower in IC50: 2.9 µM for the first, 1.8 µM for the second. The second is the more potent here.

same assay, conditions: Table 1, formula (III); compound at 10 μM

CCCN1N=C(c2ccccc2)c2cc(OC)c(OC)cc2CC1=O [IIIaf, 7,8-dimethoxy-1-phenyl-3-n-propyl-3,5-dihydro-4H-2,3-benzodiazepin-4-one] was tested, and the “PDE4 percentage inhibition at 10 μM” value was 30%.

same assay, conditions: Table 2, formula (XXII); 1 μM cyclic AMP

Going from CCOc1cc2c(cc1OC)C(c1ccccc1)=NC(c1ccccc1)C(=O)N2 (stereo not drawn) [XXIIba, 3,5-diphenyl-8-ethoxy-7-methoxy-1,3-dihydro-2H-1,4-benzodiazepin-2-one] to CCOc1cc2c(cc1OCC)C(c1ccccc1)=NC(Cc1ccccc1)C(=O)N2 (stereo not drawn) [XXIIaj, 3-benzyl-7,8-diethoxy-5-phenyl-1,3-dihydro-2H-1,4-benzodiazepin-2-one], the IC50 falls from 6.7 µM to 4.4 µM (1.5-fold).

COc1cc2c(cc1OC)C(c1cccc(Br)c1)=NCC(=O)N2 [XXIIak, 5-(3-bromophenyl)-7,8-dimethoxy-1,3-dihydro-2H-1,4-benzodiazepin-2-one] gave an IC50 of 13 µM.

same assay, conditions: Table 2, formula (XXII); compound at 10 μM

First: COc1cc2c(cc1OC)C(c1ccccc1)=N[C@@H](Cc1ccccc1)C(=O)N2 [XXIIau, (S)-3-benzyl-7,8-dimethoxy-5-phenyl-1,3-dihydro-2H-1,4-benzodiazepin-2-one]
Second: COc1cc2c(cc1OC)C(c1ccccc1Br)=NCC(=O)N2 [XXIIal, 5-(2-bromophenyl)-7,8-dimethoxy-1,3-dihydro-2H-1,4-benzodiazepin-2-one]
The “PDE4 percentage inhibition at 10 μM” value of the first is higher: 42.6% for the first, 23.9% for the second.

First: COc1ccc2c(c1)C(c1ccccc1)=NCC(=O)N2 [XXIIao, 7-methoxy-5-phenyl-1,3-dihydro-2H-1,4-benzodiazepin-2-one]
Second: O=C1CN=C(c2ccc(Br)cc2)c2ccc(Br)cc2N1 [XXIIab, 8-bromo-5-(4-bromophenyl)-1,3-dihydro-2H-1,4-benzodiazepin-2-one]
The “PDE4 percentage inhibition at 10 μM” value of the first is higher: 11.5% for the first, 10% for the second.

same assay, conditions: Table 3, formula (II); 1 μM cyclic AMP

With CCN1C(=O)CN=C(c2ccc(C#Cc3ccccc3)cc2)c2cc(OC)c(OC)cc21 [IIbr, 1-ethyl-7,8-dimethoxy-5-[4-(phenylethynyl)phenyl]-1,3-dihydro-2H-1,4-benzodiazepin-2-one] the IC50 was 6.6 µM and 3.8 µM.
With CCN1C(=O)CN=C(c2ccc(CCc3ccccc3)cc2)c2cc(OC)c(OC)cc21 [IIbu, 1-ethyl-7,8-dimethoxy-5-[4-(2-phenylethyl)phenyl]-1,3-dihydro-2H-1,4-benzodiazepin-2-one] the IC50 was 12.4 µM and 18.7 µM.

Compared with COc1ccc(C2=NCC(=O)N(C)c3cc(OC)c(OC)cc32)cc1 [IIaw, 7,8-dimethoxy-5-(4-methoxyphenyl)-1-methyl-1,3-dihydro-1,4-benzodiazepin-2-one], COc1cc2c(cc1OC)N(C)C(=O)CN=C2c1cc2ccccc2o1 [IIag, 5-(2-benzo[b]furyl)-7,8-dimethoxy-1-methyl-1,3-dihydro-1,4-benzodiazepin-2-one] is 2.1-fold lower in IC50: 10 µM for the first, 4.8 µM for the second. The second is the more potent here.

Going from CCN1C(=O)C(Cc2ccccc2)N=C(c2ccccc2)c2cc(OC)c(OC)cc21 (stereo not drawn) [IIcq, 3-benzyl-1-ethyl-7,8-dimethoxy-5-phenyl-1,3-dihydro-2H-1,4-benzodiazepin-2-one] to CCOc1cc2c(cc1OC)C(c1ccccc1)=NC(Cc1ccccc1)C(=O)N2CC (stereo not drawn) [IIbb, 3-benzyl-8-ethoxy-1-ethyl-7-methoxy-5-phenyl-1,3-dihydro-2H-1,4-benzodiazepin-2-one], the IC50 falls from 7.4 µM to 3.13 µM (2.4-fold).

First: CCN1C(=O)C(C(O)c2cccc(Br)c2)N=C(c2ccccc2)c2cc(OC)c(OC)cc21 (stereo not drawn) [IIch, 3-[(3-bromophenyl)(hydroxy)methyl]-1-ethyl-7,8-dimethoxy-5-phenyl-1,3-dihydro-2H-1,4-benzodiazepin-2-one]
Second: CCN1C(=O)C(Cc2ccccc2OC)N=C(c2ccccc2)c2cc(OC)c(OC)cc21 (stereo not drawn) [IIcr, 1-ethyl-7,8-dimethoxy-3-(2-methoxybenzyl)-5-phenyl-1,3-dihydro-2H-1,4-benzodiazepin-2-one]
The IC50 of the first is 3.6-fold higher: 9.6 µM for the first, 2.7 µM for the second. The second is the more potent here.

Going from CCN1C(=O)C(Cc2cccc(-c3ccccc3)c2)N=C(c2ccccc2)c2cc(OC)c(OC)cc21 (stereo not drawn) [IIcu, 3-(1,1′-biphenyl-3-ylmethyl)-1-ethyl-7,8-dimethoxy-5-phenyl-1,3-dihydro-2H-1,4-benzodiazepin-2-one] to CCN1C(=O)CN=C(c2ccc(C#CCOCc3ccccc3)cc2)c2cc(OC)c(OC)cc21 [IIbn, 5-{4-[3-(benzyloxy)prop-1-ynyl]phenyl}-1-ethyl-7,8-dimethoxy-1,3-dihydro-2H-1,4-benzodiazepin-2-one], the IC50 falls from 4.8 µM to 2.95 µM (1.6-fold).

same assay, conditions: Table 3, formula (II); compound at 10 μM

First: COc1cc2c(cc1OC)N(C)C(=O)CN=C2N1CCc2ccccc2C1 [IIav, 7,8-dimethoxy-1-methyl-5-(N-tetrahydro-1,2,3,4-isoquinolyl)-1,3-dihydro-2H-1,4-benzodiazepin-2-one]
Second: COc1cc2c(cc1OC)N(C)C(=O)CN=C2c1ccc(F)cc1 [IIad, 7,8-dimethoxy-5-(4-fluorophenyl)-1-methyl-1,3-dihydro-2H-1,4-benzodiazepin-2-one]
The “PDE4 percentage inhibition at 10 μM” value of the first is lower: 15% for the first, 23% for the second.

Going from C#CCC1N=C(c2ccccc2)c2cc(OC)c(OC)cc2N(CC)C1=O (stereo not drawn) [IIbt, 1-ethyl-7,8-dimethoxy-5-phenyl-3-prop-2-ynyl-1,3-dihydro-2H-1,4-benzodiazepin-2-one] to CCN1C(=O)C(CC(N)=O)N=C(c2ccccc2)c2cc(OC)c(OC)cc21 (stereo not drawn) [IIcw, 2-(1-ethyl-7,8-dimethoxy-2-oxo-5-phenyl-2,3-dihydro-1H-1,4-benzodiazepin-3-yl)acetamide], the “PDE4 percentage inhibition at 10 μM” value falls from 38.4% to 9.4%.

CCN1C(=O)C(Cc2cccc(CN)c2)N=C(c2ccccc2)c2cc(OC)c(OC)cc21 (stereo not drawn) [IIct, 3-[3-(aminomethyl)benzyl]-1-ethyl-7,8-dimethoxy-5-phenyl-1,3-dihydro-2H-1,4-benzodiazepin-2-one] and COc1ccc2cc(C3=NCC(=O)N(C)c4cc(OC)c(OC)cc43)ccc2c1 [IIap, 7,8-dimethoxy-5-(6-methoxy-2-naphthyl)-1-methyl-1,3-dihydro-1,4-benzodiazepin-2-one] are the same in “PDE4 percentage inhibition at 10 μM” value: 18% for the first, 18% for the second.

With COc1cc2c(cc1OC)N(C)C(=O)CN=C2c1ccco1 [IIah, 5-(2-furyl)-7,8-dimethoxy-1-methyl-1,3-dihydro-1,4-benzodiazepin-2-one] the “PDE4 percentage inhibition at 10 μM” value was 36%.

same assay, conditions: Table 3, formula (II); compound at 10 μM; 10 µM

For CCN1C(=O)C(Cc2ccc(Cl)cc2)N=C(c2ccccc2)c2cc(OC)c(OC)cc21 (stereo not drawn) [IIcn, 3-(4-chlorobenzyl)-1-ethyl-7,8-dimethoxy-5-phenyl-1,3-dihydro-2H-1,4-benzodiazepin-2-one], the “PDE4 percentage inhibition at 10 μM” value was 45%.
